The source of these data is patent publication US20250332173A1, “COMPOUNDS AND METHODS FOR MODULATING NUCLEIC ACID SPLICING” (REMIX THERAPEUTICS INC., priority 2021, published 2025).

Experiment [1] concerns SMN2 mRNA. As to the kind of experiment: RT-qPCR splicing assay, SMN2 canonical junction (CJ) mRNA. The experiment is classed as cell-based, human. The conditions noted are these: Homo sapiens; Table 5 panel; canonical junction qPCR; compound concentration having 50% response in CJ decrease; read-out: SMN2 IC50 (decrease in CJ mRNA levels). The method in brief:
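Cells are plated (A673 allowed 24 h to adhere), dosed with an 11-point 3-fold series topping at 10 uM final, and incubated 24 h at 37 °C. Lysis is followed by cDNA synthesis and qPCR of the CJ transcript, normalized to a housekeeping gene.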
Background: Real-time PCR tracks product formation cycle by cycle.

Experiment [2] has as its system K562 (human chronic myelogenous leukemia) cells. As to the kind of experiment: Cell Titer Glo 2.0 cell viability assay. It counts as cell-based. Particulars: Homo sapiens, K562, 72 h, K562 cells, 72 hours, Cell Titer Glo 2.0; read-out: K562 GI50. In general terms: Cellular ATP, detected with luciferase, serves as a proxy for viable cell number.
Experiment [3] concerns Target C. Put plainly: HiBiT protein abundance assay, Target C HiBiT K562 cell line. The experiment is classed as cell-based. Particulars: Homo sapiens; HiBiT lytic detection, modified K562 cells, 24 hours, top dose 10 μM; read-out: Effect on protein abundance, Target C (IC50). Here is the method: • Promega Nano-Glo HiBiT Lytic Detection System (cat #N3030) • Corning 384-well TC-treated microplates (cat #3570) • Synthego Engineered Cells Knock-In Clones
Cells were maintained in IMDM with 10% FBS. Before the assay, cells were diluted with […] growth media (IMDM+[…] media) and were seeded in a 384-well plate at a density of 10,000 cells/well (for each cell line listed in Table 5). Each compound was prepared as a 10-point 3-fold serial dilution in DMSO with the top dose at a final concentration of 10 μM in the well. Unmodified K562 cells were added at the previously specified density with DMSO to serve as an assay baseline and positive control (PC) and DMSO only with the respective modified cell lines was added to the negative control (NC) columns. Final DMSO concentration was kept at or below 0.25%. Treated cell plates were placed in an incubator at 37° C. with […] for 24 hours. After 24 hours, 25 μL of Complete HiBit Lytic reagent was added to each well at room temperature (e.g. one plate requiring 10 mL Lytic Buffer, 100 μL LgBiT Protein, 200 μL Lytic Substrate), shaken for 5 minutes at 600 RPM, then left to sit for 10 minutes for signal to stabilize before reading on a Spark Cyto plate reader (Tecan) with a 500 ms measurement time.
To determine compound effects on protein abundance of each target in Table 5, the percent response for each respective cell line was calculated at each compound concentration as follows:
For the normalized response at each concentration, a four-parameter logistical regression was fit to the data and the response was interpolated at the […] to determine a concentration for protein abundance at […] the untreated control.
(In general: With HiBiT, luminescence reflects the tagged protein that the partner subunit can reach.)

`Cc1cn2cc(-c3cc(F)c4c(=O)n(C5CC(C)NC(C)C5)ccc4c3)cc(F)c2n1` (centres unmarked) [Compound 651]: the IC50 – broadly, the midpoint of a concentration-inhibition curve – in experiment [1] is less than 0.1 µM. In experiment [2], the GI50 (usually the concentration at which growth is held to half of that of the control) is less than 0.1 µM.
For the compound `Cc1cn2cc(-c3cc(F)c4c(=O)n([C@H]5CNC[C@H]5C)ccc4c3)cc(F)c2n1` [Compound 652, 8-fluoro-6-(8-fluoro-2-methyl-imidazo[1,2-a]pyridin-6-yl)-2-[(3R,4R)-4-methylpyrrolidin-3-yl]isoquinolin-1-one], the IC50 in experiment [1] was 0.1 to 1 µM. Also, the GI50 in experiment [2] lay within 1 to 10 µM.
For the compound `Cc1cn2cc(-c3cc(F)c4c(=O)n([C@@H]5CNC[C@@H]5C)ccc4c3)cc(F)c2n1` [Compound 653, 8-fluoro-6-(8-fluoro-2-methyl-imidazo[1,2-a]pyridin-6-yl)-2-[(3S,4S)-4-methylpyrrolidin-3-yl]isoquinolin-1-one], the IC50 in experiment [1] lay within 0.1 to 1 µM. The GI50 in experiment [2] is greater than 10 µM.
For `Cn1cc2cc(-c3ncc4c(=O)n(C5CCNCC5)ccc4n3)c(O)c(F)c2n1` [Compound 1123], the IC50 in experiment [1] was less than 0.1 µM. Further, the GI50 in experiment [2] was less than 0.1 µM.
On to `CNC1CCN(c2ccc3cc(-c4cc(C)c5nc(C)cn5n4)ccn3c2=O)C1` (centres unmarked) [Compound 1158], for which the IC50 in experiment [1] is less than 0.1 µM; in experiment [3] it was 1 to 10 µM. In addition, in experiment [2], the GI50 lay in the range of 0.1 to 1 µM.
On to `Cc1cn2nc(-c3ccn4c(=O)c(C5CCNCC5)ccc4c3)cc(C)c2n1` [Compound 1181], for which the concentration for half-maximal inhibition (IC50) in experiment [1] and in experiment [3] was less than 0.1 µM each time. Besides, in experiment [2], the GI50 is less than 0.1 µM.
As to `Cc1cn2nc(-c3ccn4c(=O)c(C5=CCNCC5)ncc4c3)cc(C)c2n1` [Compound 1182], the IC50 in experiment [1] and in experiment [3] was 0.1 to 1 µM in each case. Moreover, the GI50 in experiment [2] was 0.1 to 1 µM.
